This note sets out measurements from ChEMBL document CHEMBL5126518, “Quercetin derivatives: Drug design, development, and biological activities, a review” (Eur J Med Chem, 2022).

One may read the IC50 as the concentration that inhibits the measured activity by half. Usually MIC stands for the least concentration at which growth counts as inhibited. In general, EC50 refers to the concentration that produces a half-maximal response.

The structures appear in SMILES notation. Values after ≈ are worked out from the molar mass of the structure shown.

The test system of data set [1] is Pseudomonas aeruginosa. The experiment in a line: Antibacterial activity against carbapenem-resistant Pseudomonas aeruginosa CCARM2321 assessed as fold reduction in ceftazidime MIC incubated for 20 hrs by checkerboard synergy test. It counts as functional.
Data set [2] deals with MCF7. The experiment in a line: Induction of apoptosis in human MCF7 cells assessed as early apoptotic cells at 50 uM measured after 12 hrs by annexin V-FITC/propidium iodide staining based flow cytometry relative to control. The data set is classed as functional.
Data set [3] in a line: Antioxidant activity assessed as DPPH radical scavenging activity up to 2 mM relative to control. The data set is classed as functional. In general terms: DPPH is a stable violet radical that fades when it is reduced.
In data set [4] the test system is Staphylococcus aureus. The experiment in a line: Antibiofilm activity against methicillin sensitive Staphylococcus aureus ATCC 29213 assessed as inhibition of biofilm formation incubated for 24 hrs by crystal violet staining based assay. Particulars: ATCC 29213, 24 h. It counts as functional, organism-based.
The test system of data set [5] is Staphylococcus aureus. The experiment in a line: Antibiofilm activity against methicillin resistant Staphylococcus aureus AMCSA 5016 assessed as inhibition of biofilm formation incubated for 24 hrs by crystal violet staining based assay. It counts as functional, organism-based. Conditions: AMCSA 5016, 24 h.
Data set [6] concerns Staphylococcus aureus. The experiment in a line: Antibiofilm activity against heteroresistant vancomycin-intermediate Staphylococcus aureus ATCC 700698 assessed as inhibition of biofilm formation incubated for 24 hrs by crystal violet staining based assay. Particulars: ATCC 700698, 24 h. The data set is classed as functional, organism-based.
The test system of data set [7] is Staphylococcus aureus. The experiment in a line: Antibiofilm activity against vancomycin-intermediate Staphylococcus aureus ATCC 700699 assessed as inhibition of biofilm formation incubated for 24 hrs by crystal violet staining based assay. It counts as functional, organism-based. Particulars: ATCC 700699, 24 h.
Data set [8] has as its system Acinetobacter baumannii. The experiment in a line: Antibacterial activity against carbapenem-resistant Acinetobacter baumannii AMC-AB 643 assessed as fold reduction in ceftazidime MIC incubated for 20 hrs by checkerboard synergy test. It counts as functional.
Data set [9] concerns Pseudomonas aeruginosa. The experiment in a line: In vivo antibacterial activity against carbapenem-susceptible Pseudomonas aeruginosa ATCC 27853 infected in CD-1 mouse assessed as mouse survival at 40 mg/kg per day administered for 7 days in presence of ceftazidime. It counts as functional. Particulars: time 7 day.
The subject of data set [10] is Influenza A virus. The experiment in a line: Antiviral activity against influenza A/PR/8/34 H1N1 virus infected in MDCK cells assessed as cell growth inhibition measured after 48 hrs by SRB assay. The data set is classed as functional, organism-based. Conditions: A/PR/8/34 H1N1, MDCK. For orientation: Sulforhodamine B stains cellular protein and so reports cell mass.

Data set [11] can be described thus: Cytotoxicity against MDCK cells assessed as reduction in cell viability incubated for 48 hrs by SRB assay. The data set is classed as toxicity, cell-based, Canis lupus familiaris. Particulars: dog.
In data set [12] the test system is Candida albicans. The experiment in a line: Antifungal activity against Candida albicans 475/15 assessed as fungal growth inhibition measured after 24 hrs by microdilution assay. It counts as functional. For orientation: Broth dilution looks for growth in wells or tubes with falling amounts of substance.
Data set [13] relates to Candida albicans. The experiment in a line: Antifungal activity against Candida albicans 527/14 assessed as fungal growth inhibition measured after 24 hrs by microdilution assay. It counts as functional.
Data set [14] deals with Candida albicans. The experiment in a line: Antifungal activity against Candida albicans 10/15 assessed as fungal growth inhibition measured after 24 hrs by microdilution assay. The data set is classed as functional.
The subject of data set [15] is Candida albicans. The experiment in a line: Antifungal activity against Candida albicans 13/15 assessed as fungal growth inhibition measured after 24 hrs by microdilution assay. It counts as functional.
Data set [16] has as its system Candida albicans. The experiment in a line: Antibiofilm activity against Candida albicans 475/15 assessed as inhibition of biofilm formation measured after 24 hrs by crystal violet staining based analysis relative to control. Details: scale not given: the % may be the effect or the level left. The data set is classed as functional.
The test system of data set [17] is Influenza A virus. The experiment in a line: Antiviral activity against Influenza A virus H1N1/pdm09 infected in MDCK cells pretreated with compound for 1 hr followed virus infection measured after 48 hrs. The data set is classed as functional, organism-based.
A short description of data set [18]: Cytotoxicity against MDCK cells assessed as reduction in cell viability incubated for 48 hrs by MTT assay. It counts as toxicity, cell-based, Canis lupus familiaris. Particulars: dog, read-out: CTD50.
The nature of data set [19]: Selectivity index, ratio of CTD50 for cytotoxicity against MDCK cells to EC50 for antiviral activity against Influenza A H1N1/pdm09 infected in MDCK cells. It counts as toxicity, cell-based. Conditions: dog, read-out: Selectivity Index.

On to `O=c1c(O)c(-c2ccc(F)c(F)c2)oc2cc(O)cc(O)c12`, for which the “fold change (FC)” value in data set [1] is recorded as 8; in [8], 4. Further, the Activity is 47.7% in [2], 50% in data set [3] and 20% in [9]. The concentration for half-maximal inhibition (IC50) in [4], in [5], in data set [6] and in data set [7] was 1.8 µg/mL (≈ 5.88 µM) in each case.
With `O=c1c(O)c(-c2ccc(O)c(O)c2)oc2cc(O[C@H]3O[C@H](CO)[C@@H](O)[C@H](O)[C@H]3O)cc(O)c12`, the IC50 in data set [10] came out at 2.1 µg/mL (≈ 4.52 µM). Besides, in [11], the CC50 at 48 h was over 100 µg/mL.
For `O=c1c(O[C@@H]2O[C@H](CO)[C@@H](O)[C@H](O)[C@H]2O)c(-c2ccc(O)c(O)c2)oc2cc(O)cc(O)c12` [ISOQUERCETIN], the minimum inhibitory concentration (MIC) in [12], in [13], in [14] and in data set [15] was 37.5 µg/mL (≈ 80.8 µM) each time. Further, the Activity in data set [16] came to 76%.
Consider `CCOC1(Br)C(=O)c2c(O)c(Br)c(O)c(Br)c2OC1(Br)c1cc(O)c(O)c(Br)c1` (centres undefined), for which the EC50 in data set [17] was 6 µg/mL (≈ 8.26 µM). The CC50 at 48 h in data set [18] came out at 97.7 µg/mL (≈ 134 µM). Besides, in [19], the selectivity ratio came out at 16.
